Data reported in PMC12002301, “Discovery and functional characterization of a bombesin-type neuropeptide signaling system in an invertebrate” (Proceedings of the National Academy of Sciences of the …, 2025).

Tested on: ArBNR2
Assay: Luminescence (GFP-aequorin Ca2+) assay, CHO-K1 cells coexpressing ArBNR2 and Gqs5
Assay type: cell-based, Asterias rubens
Conditions: ArBNR2, words; up to 10^-5 M
Description: Having investigated relationships of eleven A. rubens BN-type receptor candidates (ArBNR1-11) with BN-type, ET-type, and CCHa/EP-type receptors in other taxa, ArBNR1 was identified as the best candidate and therefore this was selected for experimental testing. However, two other receptors (ArBNR2 and ArBNR3) were also tested. The methods employed for functional characterization of A. rubens neuropeptide receptors have been described previously ([57]) and a description of the methods employed in this study is included in SI Appendix, SI Methods. […]
Functional characterization of A. rubens BN-type receptors
Two cDNAs encoding ArBNR1 and ArBNR3 were cloned from A. rubens radial nerve cord cDNA using Q5 polymerase (NEB, Cat. no. M0491S) and PCR with specific primers (SI Appendix, Table S5). To facilitate expression of the cloned receptors, the forward primers were designed to contain a partial Kozak consensus sequence (ACC) before the ATG start codon. Then, PCR products were inserted into the mammalian expression vector pcDNA 3.1(+) (Invitrogen, Cat. no.
V79020) that had been cut in advance with the restriction enzyme EcoRV (NEB, Cat. no. […] Successful ligation and the direction of the insert was determined by restriction enzyme digestion and sequencing (TubeSeq service; Eurofins Genomics). […]
identical to residues 18 - 270 of the protein XP_033631283.1, which was determined from genome […]

| Substance | peptide-induced luminescence |
| --- | --- |
| NYNRVFGPTY-NH2 [ArBN5-14, C-terminally amidated 10-residue peptide corresponding to the C-terminal region of ArBN] | did not trigger luminescence |
| EPMPSSLALYIANLSP-NH2 [ArBNP65-81, C-terminally amidated 16-residue peptide predicted to be derived from residues 65 to 81 of ArBNP] | did not trigger luminescence |
